{"source": "paper PMC6763016", "about": "(PLoS ONE, 2019)", "molecular_target": "T1, 5-HT1A autoreceptor (5-HT1AAR) of Tph2-/- mouse dorsal raphe serotonergic neurons (Mus musculus, UniProt Q64264)", "T1 construct": "gene Htr1a", "T1 sequence (Q64264 1-421)": "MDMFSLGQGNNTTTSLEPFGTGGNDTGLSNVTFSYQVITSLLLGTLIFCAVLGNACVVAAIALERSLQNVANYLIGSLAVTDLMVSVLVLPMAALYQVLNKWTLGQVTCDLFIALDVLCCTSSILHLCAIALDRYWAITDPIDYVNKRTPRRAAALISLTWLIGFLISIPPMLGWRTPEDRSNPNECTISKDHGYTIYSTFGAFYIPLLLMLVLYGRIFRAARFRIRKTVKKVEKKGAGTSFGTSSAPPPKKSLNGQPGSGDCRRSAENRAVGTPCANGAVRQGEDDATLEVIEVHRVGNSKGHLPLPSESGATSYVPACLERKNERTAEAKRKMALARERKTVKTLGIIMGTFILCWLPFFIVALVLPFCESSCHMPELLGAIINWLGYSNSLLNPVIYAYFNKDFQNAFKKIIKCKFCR", "settings": "agonist; 10 μM phenylephrine and synaptic blockers present; 34-36 °C; four of nine neurons (those silenced by 1 μM)", "data": [{"smiles": "O=c1n(CCCN2CCN(c3cccc(Cl)c3)CC2)nc2ccccn12", "note": "[Trazodone]", "values": [{"measurement": "% decrease of firing at 1 μM", "result": "96.1 ± 7.3", "unit": "%"}]}]}
